Source: PubChem BioAssay (NCI)
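Results reflect a 48-hour exposure of cells in 96-well plates to compound at five concentrations. TGI: total growth inhibition.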

How the values were obtained:
Assay in all cases: inhibition of tumour cell growth, NCI panel, 48 h
[1] = tested on: PC-3 prostate
[2] = tested on: SF-539 CNS
[3] = tested on: COLO 205 colon
[4] = tested on: HCT-116 colon
[5] = tested on: NCI-H522 lung
[6] = tested on: DU-145 prostate
[7] = tested on: KM12 colon
[8] = tested on: MCF7 breast
[9] = tested on: CCRF-CEM leukemia
[10] = tested on: SK-OV-3 ovarian
[11] = tested on: K-562 leukemia
[12] = tested on: UACC-257 melanoma
[13] = tested on: SNB-19 CNS
[14] = tested on: MDA-MB-231 breast
[15] = tested on: SK-MEL-28 melanoma
[16] = tested on: TK-10 renal
[17] = tested on: OVCAR-8 ovarian
[18] = tested on: A549 NSCLC
[19] = tested on: OVCAR-4 ovarian
[20] = tested on: NCI-H23 lung
[21] = tested on: HOP-92 NSCLC
[22] = tested on: LOX IMVI melanoma
[23] = tested on: ACHN renal
[24] = tested on: MDA-MB-435
[25] = tested on: BT-549 breast
[26] = tested on: UACC-62 melanoma
[27] = tested on: HCT-15 colon
[28] = tested on: HS 578T breast
[29] = tested on: SK-MEL-2 melanoma
[30] = tested on: SF-268 CNS
[31] = tested on: CAKI-1 renal
[32] = tested on: T-47D breast
[33] = tested on: HOP-62 NSCLC
[34] = tested on: SW-620 colon
[35] = tested on: MDA-N
[36] = tested on: RPMI-8226 leukemia
[37] = tested on: SF-295 CNS
[38] = tested on: U251 CNS
[39] = tested on: NCI/ADR-RES ovarian
[40] = tested on: M14 melanoma
[41] = tested on: EKVX NSCLC
[42] = tested on: MALME-3M melanoma
[43] = tested on: NCI-H226 lung
[44] = tested on: UO-31 renal
[45] = tested on: A498 renal
[46] = tested on: HT29 colon
[47] = tested on: IGROV1 ovarian
[48] = tested on: OVCAR-3 ovarian
[49] = tested on: SNB-75 CNS
[50] = tested on: SN12C renal
[51] = tested on: RXF 393 renal
[52] = tested on: OVCAR-5 ovarian
[53] = tested on: SK-MEL-5 melanoma
[54] = tested on: 786-0 renal

Measured: TGI

CC(C)(C)c1cc(C(CO)OCCOCCO)cc(C(C)(C)C)c1O (centres undefined)
> 100 µM: [1] | [2] | [3] | [4] | [5] | [6] | [7] | [8] | [9] | [10] | [11] | [12] | [13] | [14] | [15] | [16] | [17] | [18] | [19] | [20] | [21] | [22] | [23] | [24] | [25] | [26] | [27] | [28] | [29] | [30] | [31] | [32] | [33] | [34] | [35] | [36] | [37] | [38] | [39] | [40] | [41] | [42] | [43] | [44] | [45] | [46] | [47] | [48] | [49] | [50] | [51] | [52] | [53] | [54]
